# Measured values published in PubChem BioAssay AID192 (DTP/NCI, 2004).
# Where “and” joins values, the source holds several entries; their conditions need not be identical. Identical values can stand only once. Toxic doses and inconclusive results are not listed.
# System: BDF1 mice, B16 melanoma ip, median survival T/C
# Experiment: NCI In Vivo Anticancer Drug Screen. Data for tumor model B16 Melanoma (intraperitoneal) in B6D2F1 (BDF1) mice
# Settings: endpoint: median survival time, higher = longer survival
# In short: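 Vehicle-treated animals serve as the reference (C); treated animals (T) are scored for survival or tumor size after tumor transplantation.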
# [1] = dose: 50.0 mg/kg/injection, schedule: Q01DX009 (ip), vehicle: Klucel (hydroxypropylcellulose) (HPC)
# [2] = dose: 100.0 mg/kg/injection, schedule: Q01DX009 (ip), vehicle: Klucel (hydroxypropylcellulose) (HPC)
# [3] = dose: 50.0 mg/kg/injection, schedule: Q01DX009 (ip), vehicle: saline
# [4] = dose: 100.0 mg/kg/injection, schedule: Q01DX009 (ip), vehicle: saline
# [5] = dose: 200.0 mg/kg/injection, schedule: Q01DX009 (ip), vehicle: saline
# [6] = dose: 12.5 mg/kg/injection, schedule: Q01DX009 (ip), vehicle: saline
# [7] = dose: 25.0 mg/kg/injection, schedule: Q01DX009 (ip), vehicle: saline
# [8] = dose: 200.0 mg/kg/injection, schedule: Q01DX009 (ip), vehicle: Klucel (hydroxypropylcellulose) (HPC)
# [9] = dose: 400.0 mg/kg/injection, schedule: Q01DX009 (ip), vehicle: Klucel (hydroxypropylcellulose) (HPC)
# [10] = dose: 50.0 mg/kg/injection, schedule: Q01DX009 (ip), vehicle: saline with Tween-80
# [11] = dose: 100.0 mg/kg/injection, schedule: Q01DX009 (ip), vehicle: saline with Tween-80
# [12] = dose: 200.0 mg/kg/injection, schedule: Q01DX009 (ip), vehicle: saline with Tween-80
# [13] = dose: 400.0 mg/kg/injection, schedule: Q01DX009 (ip), vehicle: saline with Tween-80
# [14] = dose: 25.0 mg/kg/injection, schedule: Q01DX009 (ip), vehicle: saline with Tween-80
compound,measurement,setting,value
COc1cc2c(c(OC)c1OC)-c1ccc(OC)c(=O)cc1C(NC(=O)COc1ccccc1)CC2 (centres undefined),T/C,"dose: 1.25 mg/kg/injection, schedule: Q01DX009 (ip), vehicle: Klucel (hydroxypropylcellulose) (HPC)",175 % of control
same,T/C,"dose: 2.5 mg/kg/injection, schedule: Q01DX009 (ip), vehicle: Klucel (hydroxypropylcellulose) (HPC)",188 % of control
COC(=O)C(N)CCCCNc1ccc2c(cc1=O)C(NC(C)=O)CCc1cc(OC)c(OC)c(OC)c1-2 (centres undefined),T/C,"dose: 35.0 mg/kg/injection, schedule: Q01DX009 (ip), vehicle: saline",103 % of control
same,T/C,"dose: 53.0 mg/kg/injection, schedule: Q01DX009 (ip), vehicle: saline",106 % of control
same,T/C,"dose: 80.0 mg/kg/injection, schedule: Q01DX009 (ip), vehicle: saline",93 % of control
same,T/C,"dose: 120.0 mg/kg/injection, schedule: Q01DX009 (ip), vehicle: saline",88 % of control
same,T/C,"dose: 180.0 mg/kg/injection, schedule: Q01DX009 (ip), vehicle: saline",92 % of control
CCOP(=O)(N1CC1(C)C)N1CC1(C)C (centres undefined),T/C,"dose: 5.0 mg/kg/injection, schedule: Q01DX009 (ip), vehicle: saline",109 % of control
same,T/C,"dose: 10.0 mg/kg/injection, schedule: Q01DX009 (ip), vehicle: saline",104 % of control
same,T/C,"dose: 20.0 mg/kg/injection, schedule: Q01DX009 (ip), vehicle: saline",109 % of control
same,T/C,"dose: 30.0 mg/kg/injection, schedule: Q01DX009 (ip), vehicle: saline",118 % of control
Cc1ccc(S(=O)(=O)N/N=C(\C(=O)O)c2ccccc2)cc1,T/C,"dose: 12.5 mg/kg/injection, schedule: Q01DX009 (ip), vehicle: Klucel (hydroxypropylcellulose) (HPC)",95 % of control
same,T/C,"dose: 25.0 mg/kg/injection, schedule: Q01DX009 (ip), vehicle: Klucel (hydroxypropylcellulose) (HPC)",87 % of control and 88 % of control
same,T/C,[1],91 % of control
same,T/C,[2],89 % of control
CNC(=O)Oc1ccc2c(c1)OCO2,T/C,[3],95 % of control
same,T/C,[4],114 % of control
same,T/C,[5],107 % of control
CC(C)C(N)C(=O)Nc1nncs1 (centres undefined),T/C,[6],103 % of control
same,T/C,[7],114 % of control
same,T/C,[3],108 % of control
same,T/C,[4],102 % of control
C=C(C)C12CC(COC(=O)c3ccccc3)C34OC5(OC1C3C1OC1(COC(=O)CCCCCCCCCCCCCCC)C(O)C1(O)C(OC(=O)c3ccccc3)C(C)C(C(C)CCCCCCC5O)C14)O2 (centres undefined),T/C,"dose: 0.5 micrograms/kg/injection, schedule: Q01DX009 (ip), vehicle: saline",106 % of control
same,T/C,"dose: 1.0 micrograms/kg/injection, schedule: Q01DX009 (ip), vehicle: saline",99 % of control
same,T/C,"dose: 1.9 micrograms/kg/injection, schedule: Q01DX009 (ip), vehicle: saline",100 % of control
same,T/C,"dose: 3.8 micrograms/kg/injection, schedule: Q01DX009 (ip), vehicle: saline",109 % of control
same,T/C,"dose: 7.5 micrograms/kg/injection, schedule: Q01DX009 (ip), vehicle: saline",94 % of control
same,T/C,"dose: 15.0 micrograms/kg/injection, schedule: Q01DX009 (ip), vehicle: saline",96 % of control
same,T/C,"dose: 30.0 micrograms/kg/injection, schedule: Q01DX009 (ip), vehicle: saline",96 % of control
[Cl][Ge]([c]1ccccc1)([c]1ccccc1)[c]1ccccc1,T/C,[2],96 % of control
same,T/C,[8],96 % of control
same,T/C,[9],100 % of control
COc1ccc(C2=C(c3ccccc3)C(c3ccccc3)=C(c3ccc(OC)cc3)C2=O)cc1,T/C,[10],94 % of control
same,T/C,[11],95 % of control
same,T/C,[12],95 % of control
same,T/C,[13],94 % of control
CN(C)C(=S)S/C=C\C(=O)O,T/C,"dose: 25.0 mg/kg/injection, schedule: Q04DX003 (ip), vehicle: Klucel (hydroxypropylcellulose) (HPC)",104 % of control
same,T/C,"dose: 50.0 mg/kg/injection, schedule: Q04DX003 (ip), vehicle: Klucel (hydroxypropylcellulose) (HPC)",96 % of control
same,T/C,"dose: 100.0 mg/kg/injection, schedule: Q04DX003 (ip), vehicle: Klucel (hydroxypropylcellulose) (HPC)",92 % of control
same,T/C,"dose: 200.0 mg/kg/injection, schedule: Q04DX003 (ip), vehicle: Klucel (hydroxypropylcellulose) (HPC)",113 % of control
CCC(C)CC(=O)O (centres undefined),T/C,[4],97 % of control
same,T/C,[5],97 % of control
same,T/C,"dose: 400.0 mg/kg/injection, schedule: Q01DX009 (ip), vehicle: saline",93 % of control
C/C=C(/C)N(C(C)=O)N(C(C)=O)c1ccc([N+](=O)[O-])cc1[N+](=O)[O-],T/C,[2],100 % of control
same,T/C,[8],89 % of control
same,T/C,[9],89 % of control
C[N+](C)(C)C,T/C,"dose: 0.37 mg/kg/injection, schedule: Q01DX009 (ip), vehicle: saline",112 % of control
same,T/C,"dose: 1.5 mg/kg/injection, schedule: Q01DX009 (ip), vehicle: saline",109 % of control
same,T/C,[6],95 % of control
CN1CCC(OC2c3ccccc3CCc3ccccc32)CC1,T/C,"dose: 3.12 mg/kg/injection, schedule: Q01DX009 (ip), vehicle: saline",100 % of control
same,T/C,"dose: 6.25 mg/kg/injection, schedule: Q01DX009 (ip), vehicle: saline",104 % of control
same,T/C,[6],104 % of control
same,T/C,[7],97 % of control
Nc1ncnc2c1ncn2C1OCC(O)C1O (centres undefined),T/C,[6],101 % of control
same,T/C,[7],108 % of control
same,T/C,[3],116 % of control
COc1cccc2c1C(=O)c1c(O)c3c(c(O)c1C2=O)C[C@@](O)(/C(C)=N\O)C[C@@H]3OC1CC(N)C(O)C(C)O1 (some centres undefined),T/C,"dose: 3.13 mg/kg/injection, schedule: Q01DX009 (ip), vehicle: water",115 % of control
same,T/C,"dose: 6.25 mg/kg/injection, schedule: Q01DX001 (ip), vehicle: water",91 % of control
same,T/C,"dose: 12.5 mg/kg/injection, schedule: Q01DX001 (ip), vehicle: water",213 % of control
same,T/C,"dose: 12.5 mg/kg/injection, schedule: Q01DX009 (ip), vehicle: water",187 % of control
same,T/C,"dose: 25.0 mg/kg/injection, schedule: Q01DX001 (ip), vehicle: water",207 % of control
same,T/C,"dose: 50.0 mg/kg/injection, schedule: Q01DX001 (ip), vehicle: water",158 % of control
Nc1nc(N)nc(-c2ccc([N+](=O)[O-])o2)n1,T/C,[11],103 % of control
same,T/C,[12],97 % of control
same,T/C,[13],90 % of control
CCN(CC)CCOC(=O)c1ccccc1N(c1ccccc1)c1ccccc1,T/C,"dose: 62.5 mg/kg/injection, schedule: Q01DX009 (ip), vehicle: saline sonified",102 % of control
same,T/C,"dose: 125.0 mg/kg/injection, schedule: Q01DX009 (ip), vehicle: saline sonified",89 % of control
same,T/C,"dose: 250.0 mg/kg/injection, schedule: Q01DX009 (ip), vehicle: saline sonified",89 % of control
CCC(CC)(COS(=O)(=O)c1ccc(C)cc1)COS(=O)(=O)c1ccc(C)cc1,T/C,[2],100 % of control
same,T/C,[8],93 % of control
same,T/C,[9],93 % of control
Brc1nnnn1-c1ccccc1,T/C,[2],90 % of control
same,T/C,[8],93 % of control
CCCC(=O)Oc1ccc(/C=N/NC(N)=S)nc1,T/C,"dose: 12.5 mg/kg/injection, schedule: Q01DX009 (ip), vehicle: saline with Tween-80",105 % of control
same,T/C,[14],105 % of control
same,T/C,[10],106 % of control and 112 % of control
same,T/C,[11],116 % of control
same,T/C,[12],110 % of control
CCCCN(CCCC)CCCC#N,T/C,[5],92 % of control
CC(C)Cc1ccc(C(=O)O)cc1,T/C,"dose: 75.0 mg/kg/injection, schedule: Q04DX003 (ip), vehicle: Klucel (hydroxypropylcellulose) (HPC)",102 % of control
same,T/C,"dose: 150.0 mg/kg/injection, schedule: Q04DX003 (ip), vehicle: Klucel (hydroxypropylcellulose) (HPC)",105 % of control
same,T/C,"dose: 300.0 mg/kg/injection, schedule: Q04DX003 (ip), vehicle: Klucel (hydroxypropylcellulose) (HPC)",111 % of control
CC(C)NC(=O)N(c1ccccc1)C(C)C,T/C,[1],105 % of control
same,T/C,[2],103 % of control
O=C/C=C/c1ccc([N+](=O)[O-])cc1,T/C,[14],100 % of control
Cc1ccc(CCCC(=O)O)c(C)c1,T/C,[2],104 % of control
same,T/C,[8],96 % of control
same,T/C,[9],97 % of control
CC(C)(C)OC(=O)NC(COCc1ccccc1)C(=O)O (centres undefined),T/C,[10],90 % of control
same,T/C,[11],90 % of control
CC(C)C1(c2ccsc2)NC(=O)NC1=O (centres undefined),T/C,[1],108 % of control
same,T/C,[2],122 % of control
same,T/C,[8],109 % of control
CCC1CN2CCC3(C(=O)Nc4ccccc43)C2CC1/C(=C/OC)C(=O)OC (centres undefined),T/C,[10],95 % of control
CC(C)NNC(=O)c1ccncc1,T/C,[6],107 % of control
same,T/C,[7],94 % of control and 101 % of control
same,T/C,[3],95 % of control and 101 % of control
same,T/C,[4],110 % of control
same,T/C,[5],92 % of control and 104 % of control
